Legend:
A. fermentans = conditions: accumulation of fermentation products; cited from earlier work
[1] = target: methyl halide transferase (MHT) (Batis maritima, UniProt Q9ZSZ7); conditions: halide ion as substrate; Attieh et al. 1995, Ni and Hager 1999; cited from earlier work
[2] = system: S. cerevisiae W303a lab strain; assay: Methyl iodide toxicity assay in yeast; type: cell-based, Saccharomyces cerevisiae; conditions: cultures diluted to OD600 0.05, OD600 at 24 hours, FIG. 11D
Text: (§1) FIG. 11A-D: Methyl iodide production in recombinant S. cerevisiae. FIG. 11A. CH3I production pathway. The B. maritima MHT is expressed with a N-terminal vacuole targeting tag. The […] MHT methylates iodide ions using SAM as a methyl donor. FIG. 11B, CH3I measured in culture headspace over time. Activity on glucose-grown cells is shown. FIG. 11C, CH3I yields in grams per liter of culture per day. Values for the culturable red algae E. muricata are taken from the literature. Yields from B. maritime MHT-expressing E. coli and S. cerevisiae are calculated by comparison to standard curves. FIG. 11D, CH3I toxicity in yeast. Exponential phase cultures were diluted to an OD600 of 0.05 and commercially available CH3I was added. OD600 was measured at 24 hours of growth. The W303a lab strain is shown in filled boxes, the DNA methylation-sensitive RAD50Δ mutant is shown in open boxes.
(§2) The response of the host organism to toxic effects of an overproduced metabolite is important for development of an integrated industrial process. Methyl halides are SN2 methylating agents known to cause cytotoxic lesions in ssDNA and RNA. […]
(§3) Individual colonies were inoculated in YP media with 2% glucose and grown overnight. […] OD600 was measured by spectrometry with YP media used as a blank. […]

RAD50Δ mutant = type: cell-based, Saccharomyces cerevisiae; conditions: RAD50Δ mutant versus W303a, OD600 at 24 hours
Text: as §1, §2, §3

[3] = system: methyl halide production in E. coli on chloride, bromide and iodide; assay: MHT library screen for methyl halide activity in E. coli (Example 9B); type: cell-based; conditions: library of 89 genes, FIG. 10A
Text: As described in Example 9A, to screen for MHTs with high activity in a recombinant host, we synthesized all putative MHTs from the NCBI sequence database and assayed methyl halide production in E. colit. […] These genes were computationally codon optimized for E. coli and yeast expression and constructed using automated whole gene DNA synthesis.
Methyl halide production was sampled by analyzing the headspace gas using GC-MS (Supplementary Information).
Bacteria carrying MHT expression vectors were inoculated from freshly streaked plates and grown overnight. Cells were diluted 100-fold into media containing 1 mM IPTG and 100 mM appropriate sodium halide salt. Culture tubes were sealed with a rubber stopper and grown at 37 degrees for 3 hours. Yeast carrying MHT expression vectors were streaked on uracil dropout plates from freezer stocks (15% glycerol) and grown for 48 hours. Individual colonies were inoculated into 2 mL of synthetic complete uracil dropout media and grown overnight at 30 degrees. Cultures were next inoculated into 100 mL fresh synthetic complete uracil dropout media and grown for 24 hours. Cells were spun down and concentrated to high cell density (OD 50) in fresh YP media with 2% glucose and 100 mM sodium iodide salt. 10 mL of this concentrated culture was aliquoted into 14 mL culture tubes and sealed with a rubber stopper. […]

[4] = system: methyl bromide and methyl iodide production in E. Coli; assay: Methyl halide production by heterologous MHTs expressed in E. coli (Example 8, headspace GC/MS); type: cell-based; conditions: FIG. 7
Protocol: Nineteen methyl halide transferase genes from various organisms were codon-optimized and introduced into E. Coli. Production of methyl bromide and methyl iodide was determined for each. […] Group II UBA; Cryptococcus neoformans var. neoformans JEC21; Oryza sativa (japonica cultivar-group); Ostreococcus tauri; Dechloromonas aromatica RCB; Coprinopsis cinerea okayama; Robiginitalea bofirmata HTCC2501; Maricaulis maris MCS10; Flavobacteria bacterium BBFL7; Vitis vinifera and; halorhodospira halophila SL1.
For each strain a single colony was picked and grown overnight (10-14 hrs) in 20 mL of LB miller in a 30 mL glass test tube with aeration (a loose cap) at 37 C and 250 rpm shaking. The culture was spun down in a swinging bucket centrifuge for 5 min @ 3000×g. The cells were resuspended in 20mL of appropriate media (10 g/L Tryptone, 5 g/L Yeast Extract, 165 mM NaX [where X=CI, Br, I]) containing 100 uM IPTG inducer. The cells were sealed with rubber stoppers and parafilm and grown at 37 C with 250 rpm shaking for 1.5 hours. Cultures were taken to the GC/MS and 100 uL of headspace gas was sampled and loaded onto the column. The method run was VOIGT.m. The number of counts for the appropriate mass (MeCl, MeBr, MeI) were reported. Cells were always grown in the presence of 30 ug/mL chloramphenicol.
Methyl halide production was measured as described in the previous Examples. […] C. neoformans JEC21 gave the best methyl bromide and methyl iodide production. Leptospirillum gave the best methyl iodide production.

Molecule: CC(=O)O [acetate]
- A. fermentans growth (A. fermentans): inhibited

Molecule: I [I^−, iodide]
- Km [1]: 8.5 mM

Molecule: CCO [ethanol]
- A. fermentans growth (A. fermentans): inhibited

Molecule: CI [methyl iodide]
- level up to which yeast were resistant to deleterious methylating effects of methyl iodide [2]: > 5000 µg/mL
- sensitivity to methyl iodide (RAD50Δ mutant): increased sensitivity

Molecule: [Br-].[K+] [Br^−, bromide]
- Km [1]: 18.5 mM

B1: B. maritima: methyl halide transferase from Batis maritima, SEQ ID NO: 3 (protein, listed as Batis maritima)
chain: MSTVANIAPVFTGDCKTIPTPEECATFLYKVVNSGGWEKCWVEEVIPWDLGVPTPLVLHLVKNNALPNGKGLVPGCGGGYDVVAMANPERFMVGLDISENALKKARETFSTMPNSSCFSFVKEDVFTWRPEQPFDFIFDYVFFCAIDPKMRPAWGKAMYELLKPDGELITLMYPITNHEGGPPFSVSESEYEKVLVPLGFKQLSLEDYSDLAVEPRKGKEKLARWKKMNN
- methyl halide activity on each ion (chloride, bromide, iodide) [3]: highest activity
- methyl bromide production ([4]; 165 mM NaX, 100 uM IPTG, 1.5 hours): best
- halide specificity of methyl halide production [4]: significant specificity for methyl bromide production

— US9040266B2, “Cell-based systems for production of methyl formate” (The Regents of the University of California, priority 2009, dated 2015)
